From US8871728B2, “Non-peptide macrocyclic histone deacetylese (HDAC) inhibitors and methods of making and using thereof” (Georgia Tech Research Corporation, priority 2007, dated 2014)
Read-outs that look alike come from different tables or passages of the source.

Legend:
Experiment in all cases: SAMDI mass spectrometry HDAC inhibition assay
Assay type in all cases: biochemical
HDAC1 = HDAC1 (Homo sapiens (Human), UniProt Q13547); settings: for HDAC1 inhibition, symbol / HDAC1 inhibition in words: SAMDI
Method: (§1) There is precedence that fluorescently labeled substrates can perturb enzyme activity and the effect of inhibitors. […] Additionally, 3-hydroxypyridine-2-ones are highly colored solids and might lead to false positive signals. Mindful of these facts, a label-free SAMDI (self-assembled monolayers for MALDI) mass spectrometry assay was also used to assess HDAC inhibition.
(§2) The SAMDI technique, wherein self-assembled monolayers (SAM) of alkanethiolates on gold are analyzed by matrix assisted laser desorption/ionization (MALDI) mass spectrometry, has been widely used to characterize many biochemical activities, including the deacetylase enzyme family.

HDAC8 = HDAC8 (Homo sapiens (Human), UniProt Q9BY41)
Method: as §1, §2

HDAC6 = HDAC6 (Homo sapiens (Human), UniProt Q9UBN7); settings: for HDAC6 inhibition, symbol / IC50 / HDAC6 inhibition in words: SAMDI; for IC50: read-out: HDAC6 IC50; for inhibition at 10 µM: read-out: HDAC6 % inhibition
Method: as §1
as §2, with “family. The SAMDI assay was used to measure the inhibition constant (K1) of fragments against HDAC1, HDAC6 and HDAC8 using a previously identified preferred HDAC substrate.” for “family.”

[1] = at 10 μM, given if the IC50 was above 10 μM

Sequence of HDAC6 (Q9UBN7 whole entry): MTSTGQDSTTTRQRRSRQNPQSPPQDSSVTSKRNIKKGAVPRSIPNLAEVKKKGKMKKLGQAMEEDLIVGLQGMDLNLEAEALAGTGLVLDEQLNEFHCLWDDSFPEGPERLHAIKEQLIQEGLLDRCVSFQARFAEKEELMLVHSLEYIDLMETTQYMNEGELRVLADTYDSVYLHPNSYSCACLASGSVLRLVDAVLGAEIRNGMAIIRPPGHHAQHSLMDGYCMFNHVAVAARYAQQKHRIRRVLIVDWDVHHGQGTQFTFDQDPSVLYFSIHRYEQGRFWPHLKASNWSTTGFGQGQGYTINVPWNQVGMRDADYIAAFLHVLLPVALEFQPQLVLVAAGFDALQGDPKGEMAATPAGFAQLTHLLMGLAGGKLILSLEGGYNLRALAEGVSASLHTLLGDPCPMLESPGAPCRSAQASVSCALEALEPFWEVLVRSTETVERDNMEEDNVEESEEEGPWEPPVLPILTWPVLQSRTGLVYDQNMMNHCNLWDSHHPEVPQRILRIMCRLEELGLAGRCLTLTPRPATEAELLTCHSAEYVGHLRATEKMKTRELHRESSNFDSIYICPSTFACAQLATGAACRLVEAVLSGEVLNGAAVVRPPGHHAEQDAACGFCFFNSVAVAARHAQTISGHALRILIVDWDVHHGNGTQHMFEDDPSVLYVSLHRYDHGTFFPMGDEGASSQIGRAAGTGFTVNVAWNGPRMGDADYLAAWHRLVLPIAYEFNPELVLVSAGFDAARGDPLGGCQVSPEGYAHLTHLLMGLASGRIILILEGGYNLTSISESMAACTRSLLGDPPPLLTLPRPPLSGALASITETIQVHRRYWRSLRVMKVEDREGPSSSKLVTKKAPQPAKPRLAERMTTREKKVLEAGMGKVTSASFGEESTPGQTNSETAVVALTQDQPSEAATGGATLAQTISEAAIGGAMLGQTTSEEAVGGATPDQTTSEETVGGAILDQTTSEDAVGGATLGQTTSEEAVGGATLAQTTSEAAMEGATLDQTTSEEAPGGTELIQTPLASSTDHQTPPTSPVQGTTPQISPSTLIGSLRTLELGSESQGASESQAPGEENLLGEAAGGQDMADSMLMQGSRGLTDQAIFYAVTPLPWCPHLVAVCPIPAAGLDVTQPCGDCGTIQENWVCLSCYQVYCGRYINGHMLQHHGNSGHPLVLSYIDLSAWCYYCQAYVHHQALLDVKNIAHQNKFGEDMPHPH
Sequence of HDAC8 (Q9BY41 whole entry): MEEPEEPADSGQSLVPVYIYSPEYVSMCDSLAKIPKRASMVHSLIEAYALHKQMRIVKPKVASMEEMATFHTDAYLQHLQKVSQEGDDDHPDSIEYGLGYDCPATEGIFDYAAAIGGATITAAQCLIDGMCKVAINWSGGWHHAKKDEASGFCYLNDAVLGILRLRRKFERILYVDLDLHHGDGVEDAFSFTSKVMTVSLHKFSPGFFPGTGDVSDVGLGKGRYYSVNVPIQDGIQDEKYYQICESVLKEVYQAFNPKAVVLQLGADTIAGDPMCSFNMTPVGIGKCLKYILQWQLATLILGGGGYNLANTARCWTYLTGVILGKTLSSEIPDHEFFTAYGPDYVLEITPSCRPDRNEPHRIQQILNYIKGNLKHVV
Sequence of HDAC1 (Q13547 whole entry): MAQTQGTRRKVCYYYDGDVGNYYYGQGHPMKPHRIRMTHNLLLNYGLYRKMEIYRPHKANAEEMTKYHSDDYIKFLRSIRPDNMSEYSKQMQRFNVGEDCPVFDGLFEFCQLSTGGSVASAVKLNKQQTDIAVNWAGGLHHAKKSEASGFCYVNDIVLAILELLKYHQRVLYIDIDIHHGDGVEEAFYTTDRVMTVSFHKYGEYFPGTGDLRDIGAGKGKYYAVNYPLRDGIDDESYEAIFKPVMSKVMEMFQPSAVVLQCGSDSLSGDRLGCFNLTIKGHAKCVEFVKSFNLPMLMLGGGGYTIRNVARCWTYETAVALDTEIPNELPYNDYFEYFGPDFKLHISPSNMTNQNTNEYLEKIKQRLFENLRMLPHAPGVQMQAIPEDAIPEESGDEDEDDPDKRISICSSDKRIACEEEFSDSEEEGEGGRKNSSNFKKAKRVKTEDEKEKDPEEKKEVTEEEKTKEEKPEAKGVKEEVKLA

Row | Structure (SMILES) | inhibition at 10 µM (HDAC1; [1]) [%] | inhibition at 10 µM (HDAC8; [1]) [%] | HDAC1 inhibition, symbol (HDAC1) | HDAC6 inhibition, symbol (HDAC6) | further results
1 | Cc1cccc(-c2cn(CCCCCn3cccc(O)c3=S)nn2)c1 [Compound 167b, 1-(3-Tolyl)triazolylpentyl-3-hydroxypyridine-2-thione] | 19 | – | – | – | –
2 | CN(C)c1ccc(-c2ccc(Cn3cccc(O)c3=O)cc2)cn1 [Compound 148h] | – | 37 | NI (No significant Inhibition (below 20% Inhibition)) | NI (No significant Inhibition (below 20% Inhibition)) | –
3 | Oc1cccn(Cc2ccc(-c3ccncc3)cc2)c1=S [Compound 149i, 1-(4-(Pyridin-4-yl)benzyl)-3-hydroxypyridine-2-thione] | – | – | NI (No significant Inhibition (below 20% Inhibition)) | – | IC50 (HDAC8; SAMDI, read-out: HDAC8 IC50): 2780 ± 323 nM; IC50 (HDAC6): 2200 ± 355 nM
4 | Cc1ccc(-c2cn(CCCCCn3cccc(O)c3=S)nn2)cc1 [Compound 167a, 1-(4-Tolyl)triazolylpentyl-3-hydroxypyridine-2-thione] | 31 | – | – | – | –
5 | O=c1c(O)cccn1CCn1cc(-c2ccccc2)nn1 [Compound 159a, 1-Phenyltriazolylethyl-3-hydroxypyridine-2-one] | 12 | 15 | – | NI (No significant Inhibition (below 20% Inhibition)) | –
6 | O=c1c(O)cccn1CCCn1cc(-c2ccccc2)nn1 [Compound 159b, 1-Phenyltriazolylpropyl-3-hydroxypyridine-2-one] | 8 | 47 | – | – | inhibition at 10 µM (HDAC6): 41%
7 | Cc1cccc(-c2cn(CCCCCn3cccc(O)c3=O)nn2)c1 [Compound 166b, 1-(3-Tolyl)triazolylpentyl-3-hydroxypyridine-2-one] | 88 | – | – | NI (No significant Inhibition (below 20% Inhibition)) | HDAC8 inhibition, symbol (HDAC8; SAMDI): NI (No significant Inhibition (below 20% Inhibition))
8 | CN(C)c1ccc(-n2cc(Cn3cccc(O)c3=O)nn2)cc1 [Compound 152b, 1-(4-Dimethylamino)phenylltriazolylmethyl-3-hydroxypyridine-2-one] | – | 8 | NI (No significant Inhibition (below 20% Inhibition)) | NI (No significant Inhibition (below 20% Inhibition)) | –
9 | Oc1cccn(CCn2cc(-c3ccccc3)nn2)c1=S [Compound 161, 1-Phenyltriazolylethyl-3-hydroxypyridine-2-thione] | 21 | 56 | – | – | inhibition at 10 µM (HDAC6): 14%
10 | CN(C)c1ccc(-c2cn(CCCCCn3cccc(O)c3=S)nn2)cc1 [Compound 167f] | 28 | – | – | – | IC50 (HDAC8; SAMDI, read-out: HDAC8 IC50): 1480 nM; IC50 (HDAC6): 1010 ± 425 nM
11 | Cc1ccc(-c2cn(CCCCCn3cccc(O)c3=O)nn2)cc1 [Compound 166a, 1-(4-Tolyl)triazolylpentyl-3-hydroxypyridine-2-one] | 66 | 15 | – | NI (No significant Inhibition (below 20% Inhibition)) | –
12 | CN(C)c1ccc(-c2cn(CCCCCn3cccc(O)c3=O)nn2)cc1 [Compound 166f, 1-(4-(N,N-dimethylaniline))triazolylpentyl-3-hydroxypyridine-2-one] | 59 | 28 | – | NI (No significant Inhibition (below 20% Inhibition)) | –
13 | Oc1ccc[nH]c1=S [3-hydroxypyridine-2-thione, reference compound] | – | – | NI (No significant Inhibition (below 20% Inhibition)) | – | HDAC8 inhibition in words (HDAC8; SAMDI): low micromolar IC50 values; IC50 (HDAC8; Table 14, read-out: HDAC 8 (nm)): 3680 ± 1200 nM; HDAC1 inhibition in words (HDAC1): inactive; HDAC6 inhibition in words (HDAC6): low micromolar IC50 values; IC50 (HDAC6): 681 ± 110 nM
14 | Cc1cccc(-c2ccc(Cn3cccc(O)c3=O)cc2)c1 [Compound 148e, 1-(3-Methyl-(1,1′-biphenylmethyl))-3-hydroxyoxypyridine-2-one] | – | – | NI (No significant Inhibition (below 20% Inhibition)) | NI (No significant Inhibition (below 20% Inhibition)) | HDAC8 inhibition, symbol (HDAC8; SAMDI): NI (No significant Inhibition (below 20% Inhibition))
15 | Cc1ccc(-c2ccc(Cn3cccc(O)c3=S)cc2)cc1 [Compound 149d, 1-(4-Methyl-(1,1′-biphenylmethyl))-3-hydroxyoxypyridine-2-thione] | – | – | NI (No significant Inhibition (below 20% Inhibition)) | – | IC50 (HDAC8; SAMDI, read-out: HDAC8 IC50): 800 ± 304 nM; IC50 (HDAC6): 454 ± 42 nM
16 | O=c1[nH]cccc1O [3-hydroxypyridine-2-one, reference compound] | – | – | NI (No significant Inhibition (below 20% Inhibition)) | NI (No significant Inhibition (below 20% Inhibition)) | HDAC8 inhibition in words (HDAC8; SAMDI): inactive; HDAC8 inhibition, symbol (HDAC8; SAMDI): NI (No significant Inhibition (below 20% Inhibition)); HDAC1 inhibition in words (HDAC1): inactive; HDAC6 inhibition in words (HDAC6): inactive

Row | Structure (SMILES) | inhibition at 10 µM (HDAC1; [1]) [%] | inhibition at 10 µM (HDAC8; [1]) [%] | HDAC1 inhibition, symbol (HDAC1) | HDAC6 inhibition, symbol (HDAC6) | further results
17 | Oc1cccn(Cc2ccccc2)c1=S [Compound 144b, 1-Benzyl-3-hydroxypyridine-2-thione] | – | – | NI (No significant Inhibition (below 20% Inhibition)) | – | HDAC8 activity, fold superior compared to 144e (HDAC8; SAMDI): 2 fold; IC50 (HDAC8; SAMDI, read-out: HDAC8 IC50): 1270 ± 200 nM; IC50 (HDAC6): 457 ± 27 nM
18 | O=c1c(O)cccn1CCCCn1cc(-c2ccccc2)nn1 [Compound 159c, 1-Phenyltriazolylbutyl-3-hydroxypyridine-2-one] | 15 | 10 | – | NI (No significant Inhibition (below 20% Inhibition)) | HDAC8 % inhibition (HDAC8; [1]): 5%; HDAC1 % inhibition (HDAC1; [1]): 12%
19 | O=c1c(O)cccn1Cc1ccc(-c2ccccc2)cc1 [Compound 142c, 1-(1,1′-Biphenylmethyl)-3-hydroxypyridine-2-one] | – | 8 | NI (No significant Inhibition (below 20% Inhibition)) | NI (No significant Inhibition (below 20% Inhibition)) | –
20 | O=c1c(O)cccn1Cc1ccccc1 [Compound 142b, 1-Benzyl-3-hydroxypyridine-2-one] | – | 8 | NI (No significant Inhibition (below 20% Inhibition)) | NI (No significant Inhibition (below 20% Inhibition)) | –
21 | Cc1ccc(-c2ccc(Cn3cccc(O)c3=O)cc2)cc1 [Compound 148d, 1-(4-Methyl-(1,1′-biphenylmethyl))-3-hydroxyoxypyridine-2-one] | – | 25 | NI (No significant Inhibition (below 20% Inhibition)) | NI (No significant Inhibition (below 20% Inhibition)) | –
22 | N#Cc1ccc(-c2cn(CCCCCn3cccc(O)c3=O)nn2)cc1 [Compound 166d, 1-(4-Benzonitrile)triazolylpentyl-3-hydroxypyridine-2-one] | 70 | 26 | – | NI (No significant Inhibition (below 20% Inhibition)) | –
23 | N#Cc1ccc(-c2ccc(Cn3cccc(O)c3=O)cc2)cc1 [Compound 148a] | – | 16 | NI (No significant Inhibition (below 20% Inhibition)) | NI (No significant Inhibition (below 20% Inhibition)) | –
24 | CN(C)c1ccc(-n2cc(Cn3cccc(O)c3=S)nn2)cc1 [Compound 154b, 1-(4-Dimethylamino)phenylltriazolylmethyl-3-hydroxypyridine-2-thione] | – | – | NI (No significant Inhibition (below 20% Inhibition)) | – | IC50 (HDAC8; SAMDI, read-out: HDAC8 IC50): 1870 ± 723 nM; IC50 (HDAC6): 1020 ± 99 nM
25 | Oc1cccn(CCCCCCn2cc(-c3ccccc3)nn2)c1=S [Compound 162e, 1-Phenyltriazolylhexyl-3-hydroxypyridine-2-thione] | 23 | – | – | – | inhibition at 10 µM (HDAC6): 22%
26 | Oc1cccn(Cc2ccc(-c3ccccc3)cc2)c1=S [Compound 144c, 1-(1,1′-Biphenylmethyl)-3-hydroxypyridine-2-thione] | – | – | NI (No significant Inhibition (below 20% Inhibition)) | – | IC50 (HDAC8; SAMDI, read-out: HDAC8 IC50): 4280 ± 1550 nM; IC50 (HDAC6): 847 ± 188 nM
27 | N#Cc1ccc(-c2ccc(Cn3cccc(O)c3=S)cc2)cc1 [Compound 149a, 1-(4-Cyano-(1,1′-biphenylmethyl))-3-hydroxyoxypyridine-2-thione] | – | – | NI (No significant Inhibition (below 20% Inhibition)) | – | IC50 (HDAC8; SAMDI, read-out: HDAC8 IC50): 2080 ± 459 nM; IC50 (HDAC8; SAMDI, read-out: HDAC8 activity (IC50)): ~2000 nM; IC50 (HDAC6): 957 ± 159 nM
28 | O=c1c(O)cccn1Cc1ccc(-c2ccncc2)cc1 [Compound 148i, 1-(4-(Pyridine-4-yl)benzyl)-3-hydroxypyridine-2-one] | – | 16 | NI (No significant Inhibition (below 20% Inhibition)) | NI (No significant Inhibition (below 20% Inhibition)) | –
29 | N#Cc1ccc(-c2cn(CCCCCn3cccc(O)c3=S)nn2)cc1 [Compound 167d, 1-(4-Benzonitrile)triazolylpentyl-3-hydroxypyridine-2-thione] | 33 | – | – | – | IC50 (HDAC8; SAMDI, read-out: HDAC8 IC50): 1460 nM; IC50 (HDAC6): 905 ± 249 nM
30 | Oc1cccn(CCCn2cc(-c3ccccc3)nn2)c1=S [Compound 162b, 1-Phenyltriazolylpropyl-3-hydroxypyridine-2-thione] | 27 | 63 | – | – | –
31 | Cc1ccccc1-c1cn(CCCCCn2cccc(O)c2=O)nn1 [Compound 166c, 1-(2-Tolyl)triazolylpentyl-3-hydroxypyridine-2-one] | – | 4 | – | NI (No significant Inhibition (below 20% Inhibition)) | –
